This note sets out measurements from PubChem BioAssay AID608 (Sanford-Burnham Center for Chemical Genomics, 2007).

Each structure is given as a SMILES string. The source made the active and inactive calls. How the calls were made is not given here.

Chain of Peptidyl-prolyl cis-trans isomerase FKBP1A (Homo sapiens) (P62942 whole entry, looked up): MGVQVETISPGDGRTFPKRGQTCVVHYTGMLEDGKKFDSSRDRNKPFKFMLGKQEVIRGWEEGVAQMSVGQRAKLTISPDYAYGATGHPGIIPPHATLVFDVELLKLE

The test addresses Peptidyl-prolyl cis-trans isomerase FKBP1A (Homo sapiens) (UniProt P62942). In words: FKBP12 binders, biophysical, NMR detection (AID 608). The note with it: NMR binding, purified FKBP12.
In the case of `NCCCCNCCCN`, the Kd (in general, the equilibrium constant for the complex coming apart) was > 4 mM (inactive).

For the molecule `Cc1n[nH]c(=S)n1-c1ccc(C(=O)O)cc1`, the Kd is > 4 mM (inactive).

Turning to `Cn1nc(C(C)(C)C)cc1N`, the Kd was > 4 mM (inactive).

As to `COC(=O)c1oc2ccc(Cl)cc2c1NC(C)=O`, the Kd is > 4 mM (inactive).

Consider `NC(=O)C1CCN(C2CC(=O)NC2=O)CC1` (stereo unspecified), for which the Kd is > 4 mM (inactive).

In the case of `CC(=O)Nn1c(=O)[nH]c2ccccc2c1=O`, the Kd was > 4 mM (inactive).

As to `CC1=NN(c2ccc(C)cc2)C(=O)C1`, the Kd is > 4 mM (inactive).

`Cn1ncc(SCc2ccco2)c(Cl)c1=O`: the Kd is > 4 mM (inactive).

In the case of `N#Cc1ccccc1CSc1ccccn1`, the Kd is > 4 mM (inactive).

`CC(CCC(=O)O)[C@H]1CCC2C3C(C[C@H](O)[C@@]21C)[C@@]1(C)CC[C@@H](O)C[C@H]1C[C@H]3O` (stereo partly specified): the Kd was > 4 mM (inactive).

In the case of `O=C(c1ccc(Cl)s1)N1CCOCC1`, the Kd is > 4 mM (inactive).

As for `Cc1ccc(SCc2cc(=O)n3[nH]c(C)nc3n2)cc1`, the Kd was > 4 mM (inactive).

In the case of `COc1cc2c3cc1Oc1c(OC)c(OC)cc4c1[C@@H](Cc1cccc(c1)Oc1ccc(c(O)c1)C[C@@H]3N(C)CC2)N(C)CC4`, the Kd was > 4 mM (inactive).

Turning to `OCc1ccc2c(c1)OCCCO2`, the Kd is > 4 mM (inactive).

For the molecule `COc1cc(-c2csc(C)n2)ccc1O`, the Kd is > 4 mM (inactive).

`O=C1CC(=O)N(Cc2ccco2)C(=S)N1`: the Kd was > 4 mM (inactive).

On to `Cc1cc(C(=O)Nc2cccnc2)no1`, for which the Kd is > 4 mM (inactive).

Take `O=c1c2ccccc2[nH]c2ncccc12`: the Kd was > 4 mM (inactive).

`COc1ccc(-c2coc3cc(O)ccc3c2=O)c(O)c1O`: the Kd was > 4 mM (inactive).

Turning to `Cn1c(=O)n(C)c2cc(C(N)=O)ccc21`, the Kd was > 4 mM (inactive).

As for `Nc1c(C(=O)O)sc2ncccc12`, the Kd is > 4 mM (inactive).

In the case of `O=C(C1COc2ccccc2O1)N1CCOCC1` (stereo unspecified), the Kd entry is “inactive”.

Regarding `O=C1CSC(=Nc2ccc(F)cc2)N1`, the Kd was > 4 mM (inactive).

For `CCC(=O)Nc1ccc(-c2nn3c(C)nnc3s2)cc1`, the Kd was > 4 mM (inactive).

On to `O=C1CCCN1C(=O)c1ccc(F)cc1`, for which the Kd was > 4 mM (inactive).

Consider `CC(CCC(=O)O)[C@H]1CCC2C3CC[C@@H]4CCCC[C@]4(C)C3CC[C@@]21C` (stereo partly specified), for which the Kd is > 4 mM (inactive).

For `O=C(CNC(=O)c1ccc(F)cc1)NC1=NCCS1`, the Kd was > 4 mM (inactive).

With `CN1CCN(S(=O)(=O)c2ccc(=O)[nH]c2)CC1`, the Kd was > 4 mM (inactive).

As to `Cc1ccc(O)c(NC(=O)c2ccco2)c1`, the Kd was > 4 mM (inactive).

For the molecule `O=S(=O)(c1cccc(Cl)c1)N1CCCC1`, the Kd was > 4 mM (inactive).

`O=C(Cc1c(F)cccc1Cl)Nc1cccnc1`: the Kd is > 4 mM (inactive).

For the molecule `O=C1C=C(Nc2ccc(O)cc2)c2ccccc2C1=O`, the Kd was > 4 mM (inactive).

As to `O=C1c2cccc3cc(S(=O)(=O)O)cc(c23)C(=O)N1O`, the Kd was > 4 mM (inactive).

Consider `CN(C)S(=O)(=O)c1cccc(N)c1`, for which the Kd is > 4 mM (inactive).

In the case of `OCc1cccs1`, the Kd was > 4 mM (inactive).

Consider `CC(=O)Nc1ccc(NC(C)=O)c(C(F)(F)F)c1`, for which the Kd was > 4 mM (inactive).

`Clc1ccccc1-c1nc(-c2cccnc2)no1`: the Kd is > 4 mM (inactive).

On to `CC(C)[C@@H]1CC[C@@H](C)C[C@H]1O`, for which the Kd was > 4 mM (inactive).

`CN(C)C(=O)N1CCN(C(=O)c2ccco2)CC1`: the Kd is > 4 mM (inactive).

Take `NCc1ccccc1N1CCOCC1`: the Kd was > 4 mM (inactive).

Turning to `COc1cc2c(cc1OC)C1Cc3ccc(OC)c(OC)c3CN1CC2` (stereo unspecified), the Kd was > 4 mM (inactive).

`CCOC(=O)c1c(C)cc(OC)cc1O`: the Kd is > 4 mM (inactive).

Turning to `COc1ccc2c(c1)OC/C(=C/c1ccc(OC)c(OC)c1)C2=O`, the Kd was > 4 mM (inactive).

Regarding `CSc1ncc(CO)n1Cc1ccccc1`, the Kd was > 4 mM (inactive).

For the molecule `CN1CCC(N(C)Cc2cccnc2)CC1`, the Kd is > 4 mM (inactive).

For the molecule `COc1ccc(CN2CCC(O)CC2)c(O)c1`, the Kd is > 4 mM (inactive).

Consider `Clc1ncnc2[nH]ncc12`, for which the Kd was > 4 mM (inactive).

For the molecule `Cn1c(NCc2ccco2)nc2ccccc21`, the Kd was > 4 mM (inactive).

With `O=C(NCCO)NC(=S)c1ccccc1`, the Kd was > 4 mM (inactive).

Regarding `CN1C2C[C@H](OC(=O)[C@H](CO)c3ccccc3)C[C@H]1[C@@H](O)C2`, the Kd was > 4 mM (inactive).

With `C=CCN1CC[C@]23c4c5ccc(O)c4OC2C(=O)CC[C@@]3(O)[C@H]1C5` (stereo partly specified), the Kd is > 4 mM (inactive).

As to `CCCCN1C(=O)C2CC/C(=N/O)CC2C1=O` (stereo unspecified), the Kd is > 4 mM (inactive).

Consider `COc1cc(C2NC(=S)NC(C)=C2C(C)=O)ccc1O` (stereo unspecified), for which the Kd was > 4 mM (inactive).

For the molecule `O=C(O)CCC1=C2c3ccccc3CCN2C(=O)CC1`, the Kd was > 4 mM (inactive).

Take `CCOCC(=O)NCc1n[nH]c(=O)c2ccccc12`: the Kd is > 4 mM (inactive).

`Cc1cc(S(=O)(=O)N2CCCC2)ccc1OCC(=O)N1CCOCC1`: the Kd entry is “inactive”.

As to `NC(=O)c1ccsc1NC(=O)c1ccccc1[N+](=O)[O-]`, the Kd was > 4 mM (inactive).

In the case of `Cc1cc(Oc2ccccc2)nc(N)n1`, the Kd is > 4 mM (inactive).

With `CC(C)c1c(O)ccc2c1CCC1[C@@](C)(C=O)CCC[C@]21C` (stereo partly specified), the Kd is > 4 mM (inactive).

In the case of `CCc1ccccc1NC(=O)c1cnccn1`, the Kd was > 4 mM (inactive).

On to `CC(C)(CO)NC(=O)c1ccccc1F`, for which the Kd was > 4 mM (inactive).

As for `OC1CCN(Cc2ccc[nH]2)CC1`, the Kd is > 4 mM (inactive).

Consider `COc1cc2c3cc1Oc1cc(ccc1O)C[C@@H]1c4c(cc(OC)c(O)c4Oc4ccc(cc4)C[C@@H]3N(C)CC2)CC[N+]1(C)C`, for which the Kd is > 4 mM (inactive).

On to `O=C(Nc1ccc(N2CCCC2=O)cc1)c1cccc(F)c1`, for which the Kd was > 4 mM (inactive).

As to `CCC(C)OC1CCS(=O)(=O)C1` (stereo unspecified), the Kd is > 4 mM (inactive).

Consider `O=c1ccn(Cc2ccccc2)c(=O)n1Cc1ccccc1`, for which the Kd is > 4 mM (inactive).

For `COc1ccccc1/C=C/CN1CCOCC1`, the Kd is > 4 mM (inactive).

Take `NC1CSCC1O` (stereo unspecified): the Kd was > 4 mM (inactive).

Consider `O=C(NC(=S)NN1CCOCC1)c1cccs1`, for which the Kd was > 4 mM (inactive).

As for `COC(=O)c1c[nH]c2ccccc12`, the Kd was > 4 mM (inactive).

As for `CC1CCN(C(=O)c2ccc(NS(C)(=O)=O)cc2)CC1`, the Kd was > 4 mM (inactive).

As to `C=C(C)[C@H]1CC=C(C(=O)O)CC1`, the Kd is > 4 mM (inactive).

As to `Cc1c(C(=O)NC2=NCCS2)oc2ccccc12`, the Kd was > 4 mM (inactive).

As to `Cc1nnsc1C(=O)Nc1ccc(C(N)=O)cc1`, the Kd was > 4 mM (inactive).

For `O=C(NC12CC3CC(CC(C3)C1)C2)c1cnccn1`, the Kd was > 4 mM (inactive).

As to `OC1CC2CCC1C2` (stereo unspecified), the Kd is > 4 mM (inactive).

Regarding `O=C(C1CCNCC1)N1CCCCCC1`, the Kd is > 4 mM (inactive).

In the case of `CCc1cccc(C)c1NC(=O)c1cc(C)oc1C`, the Kd was > 4 mM (inactive).

With `CC(C)n1c(-c2ccncc2)n[nH]c1=S`, the Kd is > 4 mM (inactive).

As to `NC(=O)C1CCN(C(=S)c2cccs2)CC1`, the Kd is > 4 mM (inactive).

As for `O=C(O)c1[nH]nc2c1COc1ccccc1-2`, the Kd is > 4 mM (inactive).

As to `CC(=O)NN1C(=O)/C(=C\c2ccc(O)cc2)SC1=S`, the Kd is > 4 mM (inactive).

`COc1ccc(-c2cc3nc4n(c(=O)c3s2)CCC4)cc1`: the Kd is > 4 mM (inactive).

For `O=C(O)[C@H](O)[C@@](O)(Cc1ccc(O)cc1)C(=O)O`, the Kd was > 4 mM (inactive).

In the case of `COC(=O)c1ccc2ncccc2c1`, the Kd is > 4 mM (inactive).

On to `O=C1C2CCCCC2C(=O)N1c1ccc(O)cc1` (stereo unspecified), for which the Kd was > 4 mM (inactive).

Consider `O=C1NC(=O)/C(=C\c2ccncc2)S1`, for which the Kd is > 4 mM (inactive).

As to `Cc1ccc(C(C)C)cc2c(C)ccc1-2`, the Kd is > 4 mM (inactive).

Turning to `CC(=O)c1ccc(CC2SC(N)=NC2=O)cc1` (stereo unspecified), the Kd was > 4 mM (inactive).

Regarding `CN1CCN(CC(O)c2ccccc2)CC1` (stereo unspecified), the Kd is > 4 mM (inactive).

Turning to `CN1CCN(c2cc(=O)n(C)c(=O)[nH]2)CC1`, the Kd is > 4 mM (inactive).

On to `Cn1nc(C(=O)NCc2cccnc2)c2ccccc2c1=O`, for which the Kd was > 4 mM (inactive).

As for `CC1CCc2cc(F)ccc2N1C(=O)c1ccc(=O)[nH]n1` (stereo unspecified), the Kd was > 4 mM (inactive).

`Cc1cc(C)c(C)c(OCC(=O)N2CCOCC2)c1`: the Kd result is “inactive”.

For `C=C(C)C1CC=C(CO)CC1` (stereo unspecified), the Kd was > 4 mM (inactive).

As to `COc1ccc(S(=O)(=O)NCCO)cc1`, the Kd is > 4 mM (inactive).

As for `Cc1nc2ccccc2n1S(=O)(=O)N1CCCCC1`, the Kd entry was “inactive”.

`O=C(O)/C=C1\NC(=O)c2ccccc21`: the Kd is > 4 mM (inactive).

Turning to `Cc1n[nH]c(=S)n(/N=C/c2cccs2)c1=O`, the Kd was > 4 mM (inactive).

For `COc1ccc2c(CC(=O)O)coc2c1`, the Kd is > 4 mM (inactive).

Regarding `Cc1ccccc1NC(=O)CSc1ccnc(=O)[nH]1`, the Kd was > 4 mM (inactive).

For the molecule `CCC(=O)n1nc(-c2ccco2)nc1N`, the Kd is > 4 mM (inactive).

With `O=C1NCCCC1C(=O)N/N=C/c1ccccc1` (stereo unspecified), the Kd was > 4 mM (inactive).

On to `CS(=O)(=O)CCCCN=C=S`, for which the Kd was > 4 mM (inactive).

For the molecule `Cc1nn(C)c(C)c1NC(=S)NC1CCCC1`, the Kd is > 4 mM (inactive).

Regarding `COCC(=O)Nc1cccc2ccccc12`, the Kd is > 4 mM (inactive).
